This passage reports TGI results from PubChem BioAssay (NCI).

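Cultured in 96-well plates, cells were exposed to test compound for 48 hours across five concentrations. TGI marks complete inhibition of growth.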 A value given as a limit tells only on which side of the number the result lay.

Among the test systems are IGROV1 ovarian; COLO 205 colon; HCT-116 colon; NCI-H522 lung; OVCAR-5 ovarian; SK-OV-3 ovarian; HOP-62 NSCLC; KM12 colon; A549 NSCLC; MOLT-4 leukemia.
Common to all, as to assay: NCI tumour cell line growth inhibition, 48 h

As to `NC1=Nc2cc(C(F)(F)F)ccc2Sc2nc3ccccc3n21`, the TGI in the assay on IGROV1 ovarian is over 100 µM; in the assay with COLO 205 colon, over 100 µM; in the assay with HCT-116 colon it was over 100 µM; with NCI-H522 lung, over 71.1 µM; with OVCAR-5 ovarian it was over 100 µM; in the assay with SK-OV-3 ovarian, over 100 µM. In addition, the TGI in the assay on HOP-62 NSCLC, in the assay on KM12 colon, in the assay on A549 NSCLC and with MOLT-4 leukemia was over 100 µM in each case.
Regarding `C[N+](C)(CCNc1ccc(NCC[N+](C)(C)Cc2ccc([N+](=O)[O-])cc2)c2c1C(=O)c1c(O)ccc(O)c1C2=O)Cc1ccc([N+](=O)[O-])cc1`, the TGI in the assay on IGROV1 ovarian, in the assay on COLO 205 colon, with HCT-116 colon, with NCI-H522 lung, in the assay on OVCAR-5 ovarian and in the assay on SK-OV-3 ovarian was over 50 µM throughout. Also, the TGI was over 50 µM in the assay on HOP-62 NSCLC, 14.5 µM with KM12 colon, over 50 µM in the assay on A549 NSCLC and over 5 µM in the assay with MOLT-4 leukemia.
Take `COCN1C(=O)[C@@H]2CCCN2C(=O)c2ccc(N)cc21`: the TGI in the assay with IGROV1 ovarian, in the assay with COLO 205 colon, in the assay with HCT-116 colon, in the assay on NCI-H522 lung, in the assay on OVCAR-5 ovarian and in the assay with SK-OV-3 ovarian was over 100 µM in each case. For the same molecule, the TGI with HOP-62 NSCLC, with KM12 colon, in the assay on A549 NSCLC and in the assay on MOLT-4 leukemia was over 100 µM throughout.
For `CO[C@@]12C[C@H](CNC(=O)c3ccc[nH]3)O[C@@H]1NC(=O)N2`, the TGI in the assay on IGROV1 ovarian, in the assay on COLO 205 colon, in the assay with HCT-116 colon, in the assay on NCI-H522 lung, with OVCAR-5 ovarian and with SK-OV-3 ovarian was over 100 µM each time. Also, the TGI with HOP-62 NSCLC, in the assay with KM12 colon, in the assay on A549 NSCLC and in the assay on MOLT-4 leukemia was over 100 µM throughout.
For the molecule `COC1OC2COC(=O)c3cc(O)c(O)c(O)c3-c3c(cc(O)c(O)c3O)C(=O)OC2C(O)C1O` (stereo not given), the TGI in the assay with IGROV1 ovarian, in the assay on COLO 205 colon, in the assay on HCT-116 colon, with NCI-H522 lung, in the assay on OVCAR-5 ovarian and in the assay with SK-OV-3 ovarian was over 100 µM in each case. Moreover, the TGI in the assay with HOP-62 NSCLC, in the assay with KM12 colon, in the assay with A549 NSCLC and with MOLT-4 leukemia was over 100 µM throughout.
Regarding `CC(=O)c1csc2c1C(=O)c1ccccc1C2=O`, the TGI in the assay with IGROV1 ovarian is 6.42 µM; with COLO 205 colon it was 3.62 µM; in the assay with HCT-116 colon, 7.85 µM; with NCI-H522 lung, 4.1 µM; with OVCAR-5 ovarian it was 5.45 µM; with SK-OV-3 ovarian, over 100 µM. Also, the TGI in the assay on HOP-62 NSCLC is 4.36 µM; in the assay with KM12 colon, 3.68 µM; with A549 NSCLC it was 4.06 µM; with MOLT-4 leukemia it was over 66.7 µM.
In the case of `CC(C)(C)OC(=O)Cn1ncn(NC(=O)Cc2ccccc2)c1=S`, the TGI in the assay on IGROV1 ovarian, in the assay on COLO 205 colon, in the assay with HCT-116 colon, with NCI-H522 lung, with OVCAR-5 ovarian and in the assay on SK-OV-3 ovarian was over 10 µM each time. The TGI with HOP-62 NSCLC, in the assay with KM12 colon, with A549 NSCLC and in the assay on MOLT-4 leukemia was over 10 µM in each case.
As for `CC1=NN(c2nc(N)nc(CO)n2)C(C)(C)C1`, the TGI with IGROV1 ovarian, in the assay on COLO 205 colon, in the assay on HCT-116 colon, with NCI-H522 lung, in the assay on OVCAR-5 ovarian and in the assay on SK-OV-3 ovarian was over 100 µM throughout. The TGI in the assay on HOP-62 NSCLC, in the assay on KM12 colon, with A549 NSCLC and with MOLT-4 leukemia was over 100 µM in each case.
On to `O=C1Cc2cc3ccccc3nc2-c2ccccc2N1`, for which the TGI in the assay on IGROV1 ovarian was over 100 µM; with COLO 205 colon, over 100 µM; in the assay with HCT-116 colon, 62.2 µM; with NCI-H522 lung, over 100 µM; in the assay with OVCAR-5 ovarian it was over 100 µM; with SK-OV-3 ovarian it was over 100 µM. The TGI with HOP-62 NSCLC, in the assay with KM12 colon, with A549 NSCLC and with MOLT-4 leukemia was over 100 µM throughout.
Consider `CCOC(=O)N1c2ccccc2C(C)=CC(C)C1C` (stereo not given), for which the TGI with IGROV1 ovarian is over 100 µM; in the assay with COLO 205 colon it was over 100 µM; in the assay on HCT-116 colon, 40.1 µM; with NCI-H522 lung, 89.6 µM; in the assay on OVCAR-5 ovarian, over 100 µM; with SK-OV-3 ovarian it was over 100 µM. The TGI in the assay on HOP-62 NSCLC is over 100 µM; with KM12 colon, 83.4 µM; with A549 NSCLC it was over 100 µM; in the assay on MOLT-4 leukemia it was over 100 µM.
For the molecule `O=C(NNC(=O)c1ccco1)c1ccco1`, the TGI with IGROV1 ovarian, in the assay with COLO 205 colon, in the assay with HCT-116 colon, in the assay on NCI-H522 lung, in the assay on OVCAR-5 ovarian and in the assay with SK-OV-3 ovarian was over 100 µM each time. The TGI in the assay on HOP-62 NSCLC, in the assay with KM12 colon, in the assay with A549 NSCLC and with MOLT-4 leukemia was over 100 µM each time.
In the case of `Cc1sc(/N=C/C2=C(O)CC(C)(C)CC2=O)nc1-c1ccccc1`, the TGI with IGROV1 ovarian, in the assay on COLO 205 colon, in the assay on HCT-116 colon, in the assay on NCI-H522 lung, in the assay with OVCAR-5 ovarian and in the assay with SK-OV-3 ovarian was over 100 µM each time. Moreover, the TGI in the assay on HOP-62 NSCLC, with KM12 colon, with A549 NSCLC and in the assay on MOLT-4 leukemia was over 100 µM each time.
For the molecule `C/C(=C\C(=O)Nc1ccc2n[nH]nc2c1)Nc1ccc2n[nH]nc2c1`, the TGI with IGROV1 ovarian, with COLO 205 colon, in the assay with HCT-116 colon, with NCI-H522 lung, in the assay with OVCAR-5 ovarian and in the assay with SK-OV-3 ovarian was over 100 µM throughout. Also, the TGI in the assay on HOP-62 NSCLC, in the assay on KM12 colon, with A549 NSCLC and in the assay with MOLT-4 leukemia was over 100 µM throughout.
In the case of `COC(=O)c1ccccc1C1CN=NC12Cc1ccc(C)cc1C2=O` (stereo not given), the TGI in the assay on IGROV1 ovarian, in the assay with COLO 205 colon, in the assay with HCT-116 colon, in the assay with NCI-H522 lung, with OVCAR-5 ovarian and with SK-OV-3 ovarian was over 100 µM throughout. In addition, the TGI with HOP-62 NSCLC, with KM12 colon, in the assay with A549 NSCLC and in the assay with MOLT-4 leukemia was over 100 µM throughout.
For the molecule `CSc1cc(Cl)c(C)cc1S(=O)(=O)NC(=O)NNc1ccc(C)cc1`, the TGI in the assay with IGROV1 ovarian, in the assay with COLO 205 colon, in the assay with HCT-116 colon, in the assay with NCI-H522 lung, in the assay on OVCAR-5 ovarian and in the assay with SK-OV-3 ovarian was over 100 µM throughout. For the same molecule, the TGI in the assay on HOP-62 NSCLC, in the assay with KM12 colon, with A549 NSCLC and in the assay with MOLT-4 leukemia was over 100 µM throughout.
`O=C(/C=C/c1ccc(-c2ccccc2)cc1)NCc1ccc(C(=O)NCCc2ccccc2)cc1`: the TGI in the assay with IGROV1 ovarian, in the assay with COLO 205 colon, in the assay with HCT-116 colon, with NCI-H522 lung, in the assay on OVCAR-5 ovarian and in the assay on SK-OV-3 ovarian was over 100 µM throughout. Further, the TGI with HOP-62 NSCLC, in the assay on KM12 colon, in the assay with A549 NSCLC and in the assay with MOLT-4 leukemia was over 100 µM in each case.
In the case of `CC(=O)O[C@H]1[C@@H](N2CCOCC2)C[C@H]2[C@@H]3CC=C4C[C@@H](N5CCCC5)CC[C@]4(C)[C@H]3CC[C@@]21C`, the TGI in the assay on IGROV1 ovarian, in the assay on COLO 205 colon, with HCT-116 colon, in the assay with NCI-H522 lung, with OVCAR-5 ovarian and in the assay on SK-OV-3 ovarian was over 100 µM in each case. Besides, the TGI in the assay on HOP-62 NSCLC, in the assay with KM12 colon, with A549 NSCLC and in the assay on MOLT-4 leukemia was over 100 µM throughout.
In the case of `CC(=O)N[C@@H](Cc1ccc(O)cn1)C(=O)NCc1ccc(Cl)cc1`, the TGI in the assay on IGROV1 ovarian, with COLO 205 colon, in the assay with HCT-116 colon, with NCI-H522 lung, in the assay with OVCAR-5 ovarian and in the assay on SK-OV-3 ovarian was over 100 µM each time. Further, the TGI with HOP-62 NSCLC, with KM12 colon, in the assay with A549 NSCLC and in the assay with MOLT-4 leukemia was over 100 µM throughout.
For the molecule `O=C1NC(N2CCCC(CO)C2)=N/C1=C\c1cccs1` (stereo not given), the TGI in the assay on IGROV1 ovarian, in the assay on COLO 205 colon, with HCT-116 colon, in the assay on NCI-H522 lung, in the assay with OVCAR-5 ovarian and with SK-OV-3 ovarian was over 100 µM each time. The TGI in the assay with HOP-62 NSCLC, with KM12 colon, with A549 NSCLC and in the assay with MOLT-4 leukemia was over 100 µM each time.
On to `Nc1nc(SCc2ccccc2Cl)c2ncn(C3OC(CO)C(O)C3O)c2n1` (stereo not given), for which the TGI with IGROV1 ovarian, with COLO 205 colon, with HCT-116 colon, with NCI-H522 lung, with OVCAR-5 ovarian and with SK-OV-3 ovarian was over 100 µM in each case. The TGI in the assay with HOP-62 NSCLC, in the assay on KM12 colon, in the assay on A549 NSCLC and in the assay with MOLT-4 leukemia was over 100 µM throughout.
